Reference: US20260250247A1, “NOVEL INDOLINE DERIVATIVE AND USE THEREOF” (CK REGEON INC., priority 2023, published 2026)

Key:
[1] = system: F4/80, CD11 b, α-SMA, collagen I, desmin in liver tissue; test: Liver immunohistochemistry of inflammatory (F4/80, CD11 b) and fibrosis markers (α-SMA, collagen I, desmin) in MASH mice; type: in vivo, C57BL/6N mice; conditions: 25 mg/kg/day orally for 4 weeks; vs MASH group (vehicle)
Experimental: (§1) Five-week-old wild-type male C57BL/6N mice were purchased from Orient Bio Co., Ltd. They were allowed to acclimate to the laboratory environment for one week. Mice weighing 18-20 g on average were used in the experiment. To ensure ethical and scientific validity and efficient management of animal experiments, the experiment was conducted with the approval of the Institutional Review Board (IACUC-A-202205-1472-01) of Severance Hospital, Yonsei University College of Medicine.
The mice were divided into a normal group (NCD) and a high-fat diet group (HFD). The normal group (NCD) was fed a normal chow diet (NCD, Teklad Global 18% protein rodent diet), and the high-fat diet group (HFD) was fed a high-fat diet (HFD, D12492) in which fat accounted for 60% of the total calories, for 8 weeks. […]
The sections treated with the primary antibodies were washed with PBS and incubated with biotinylated anti-mouse (1:400; Dako) or anti-rabbit (1:400; Dako) secondary antibodies for 1 hour at room temperature. […] After the staining, images were taken and analyzed using a bright-field microscope (Nikon TE-2000U).
Through these experiments, the anti-inflammatory effect of the indoline derivatives of Examples 1 to 4 were analyzed in an animal model of nonalcoholic fatty liver disease. […]

[2] = system: mice induced with metabolic dysfunction-associated steatohepatitis (MASH); test: Liver fibrosis score from collagen staining (Picrosirius red) in MASH mice; type: in vivo, C57BL/6N mice; conditions: 25 mg/kg/day orally for 4 weeks; mean±SD; normal group 0, MASH group 3.11
Experimental: as §1
The mice were divided into a normal group (NCD) and a high-fat diet group (HFD). The normal group (NCD) was fed a normal chow diet (NCD, Teklad Global 18% protein rodent diet), and the high-fat diet group (HFD) was fed a high-fat diet (HFD, D12492) in which fat accounted for 60% of the total calories, for 8 weeks.
Mice induced with metabolic dysfunction-associated steatohepatitis (MASH) (hereinafter, referred to as MASH or MASH group) were prepared by administering CCl4 intraperitoneally twice a week for 4 weeks after feeding the high-fat diet (HFD) for 8 weeks. The […] was diluted with corn oil at a ratio of 1:19 and injected at a dosage of 2 mL/kg. The normal group (NOD) was administered the same volume of physiological saline.
The animals were divided into 7 groups, each with 10 animals.
After preparing the 7 groups, the animals were euthanized using carbon dioxide and the liver tissues were extracted. The extracted tissues were fixed in 4% neutral paraformaldehyde and embedded in paraffin to prepare sections. The paraffin sections were cut to 4-μm thickness, deparaffinized, and then rehydrated. The hydrated sections were stained with a Weigert's iron hematoxylin solution for 8 minutes and then with Picrosirius red for 1 hour. Collagen fibers were stained red and nuclei were stained blue. The sections were photographed using a bright-field microscope (Nikon TE-2000U).
The main mechanism of nonalcoholic fatty liver disease is the induction of hepatic stellate cell activation, which induces collagen production and leads to liver fibrosis due to collagen accumulation. From the result of collagen staining (Picrosirius red) for observing the total amount of collagen deposition in Test Example 3-6, the liver fibrosis score was analyzed. Stages 2 to 3 were diagnosed as nonalcoholic fatty liver disease (MASH) (M. Brunt et al., 2005).
All quantitative data are presented as mean±standard deviation (SD). In each experiment, all measurements were made at least three times, and data were analyzed using the two-tailed, unpaired Student's t test. P values of <0.05 were considered statistically significant.

N#Cc1ccc2c(c1)/C(=C1/Nc3ccccc3C1=O)C(=O)N2 [5-cyanoindirubin]
collagen production and α-SMA expression in liver (fibrosis markers) [1]: did not show any significant difference from the MASH group (vehicle) | expression of inflammatory markers F4/80 and CD11 b in liver [1]: no significant difference was observed from the MASH group (vehicle) | Degree of liver fibrosis (fibrosis score) [2]: 2.89
